Test results taken from article PMC10343299, “S-Ethyl-Isothiocitrullin-Based Dipeptides and 1,2,4-Oxadiazole Pseudo-Dipeptides: Solid Phase Synthesis and Evaluation as NO Synthase Inhibitors” (Molecules, 2023).
Read-outs that look alike come from different tables or passages of the source.

Experiments:
RAW 264.7 cells [1] = test: Cell viability, MTT assay; format: cell-based, murine
Protocol: Cell viability was evaluated in the murine macrophage RAW 264.7 cells using an MTT assay for compounds 18, 21, 26, and 30. This experiment was performed without or with LPS (1 µg/mL), which induces iNOS expression (Figure S1). […] Compound 30 only killed 20% of the cells at 500 μM (Figure S1A). In the presence of LPS (1 µg/mL), cell viability was reduced by 30% due to the inhibition by NO of key enzymes involved in cell metabolism (Figure S1B).
The macrophage cell line RAW 264.7 (a gift from Dr. A. Blangy, Montpellier, France) was cultured in Dulbecco’s Modified Eagle’s Medium (DMEM) supplemented with 10% FCS, 100 units/mL penicillin, 100 µg/mL streptomycin, and 2 mM L-glutamine.
(§1) Cellular NO production was measured using the Griess reagent (Sigma-Aldrich), which evaluates the nitrite content in culture media. Cellular toxicity was estimated by the MTT assay (Sigma-Aldrich) in RAW 264.7 cells after the induction (or not) of iNOS by LPS, according to the manufacturer’s recommendations.

bovine eNOS = biological target: T1, bovine eNOS (Bos taurus, UniProt P29473); test: NOS inhibition, oxyhemoglobin (hemoglobin capture) test, recombinant eNOS; format: biochemical; settings: recombinant enzyme, 10 µM arginine, triplicate, NI = <50% inhibition at 100 μM, read-out: IC50 (μM) eNOS (Bovine)
T1 construct: Full-length recombinant rat nNOS, mouse iNOS, bovine eNOS; made in house; host or cells: Escherichia coli
T1 sequence (P29473 whole entry): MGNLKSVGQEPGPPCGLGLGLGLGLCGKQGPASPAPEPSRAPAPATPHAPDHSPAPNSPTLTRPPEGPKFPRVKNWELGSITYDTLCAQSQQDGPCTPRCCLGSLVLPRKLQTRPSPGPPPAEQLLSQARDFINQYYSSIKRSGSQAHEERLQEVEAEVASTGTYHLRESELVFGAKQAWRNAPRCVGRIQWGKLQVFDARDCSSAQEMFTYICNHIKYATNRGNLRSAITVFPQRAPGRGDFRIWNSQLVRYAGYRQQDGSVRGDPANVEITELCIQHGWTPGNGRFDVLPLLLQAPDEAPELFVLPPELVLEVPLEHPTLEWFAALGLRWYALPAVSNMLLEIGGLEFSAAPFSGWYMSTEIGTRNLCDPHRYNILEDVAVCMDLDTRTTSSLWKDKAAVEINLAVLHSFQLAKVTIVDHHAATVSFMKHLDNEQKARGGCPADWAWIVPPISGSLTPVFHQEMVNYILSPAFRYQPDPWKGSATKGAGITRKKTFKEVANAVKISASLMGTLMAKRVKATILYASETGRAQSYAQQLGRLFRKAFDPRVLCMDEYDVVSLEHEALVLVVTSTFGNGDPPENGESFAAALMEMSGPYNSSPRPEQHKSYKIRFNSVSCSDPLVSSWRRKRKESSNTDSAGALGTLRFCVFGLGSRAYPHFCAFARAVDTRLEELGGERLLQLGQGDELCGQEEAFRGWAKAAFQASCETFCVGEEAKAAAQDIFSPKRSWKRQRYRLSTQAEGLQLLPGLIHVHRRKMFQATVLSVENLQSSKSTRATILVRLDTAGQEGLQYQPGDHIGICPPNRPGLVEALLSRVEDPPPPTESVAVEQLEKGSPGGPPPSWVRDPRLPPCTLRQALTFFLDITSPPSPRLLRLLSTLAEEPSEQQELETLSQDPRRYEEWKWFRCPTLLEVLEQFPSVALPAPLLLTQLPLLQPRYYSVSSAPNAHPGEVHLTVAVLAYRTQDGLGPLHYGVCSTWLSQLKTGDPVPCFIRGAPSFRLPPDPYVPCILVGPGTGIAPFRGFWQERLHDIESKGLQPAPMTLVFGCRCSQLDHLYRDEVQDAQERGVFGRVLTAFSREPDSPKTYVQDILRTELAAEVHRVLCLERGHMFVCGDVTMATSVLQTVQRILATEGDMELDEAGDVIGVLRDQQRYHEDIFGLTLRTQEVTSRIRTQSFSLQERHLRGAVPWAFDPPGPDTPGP
Protocol: The inhibitory effects of all compounds against the three recombinant NOSs (rat nNOS, mouse iNOS, and bovine eNOS) were evaluated in 96-well plates using the oxyhemoglobin test [53].
NOS catalytic activity was measured using the hemoglobin capture assay [53]. The test was performed at 30 °C in 96-well microplates using a final volume of 200 µL. The assay mixture contained 100 µM NADPH, 10 µM BH4, 6 µM HbO2, 100 µM DTT, 5 µM FAD, 5 µM FMN, 10 µM (nNOS and eNOS), or 20 µM (iNOS) arginine, all in a 100 mM Hepes buffer, pH 7.5, and, for constitutive n- and e-NOS, 10 µg/mL calmodulin, and 1 mM CaCl2. The studied compounds were introduced as 2 μL of ×100 concentrated solutions in DMSO, and the control experiments were performed with DMSO or the buffer only. The kinetics of NO production were measured at 401 nm using an Infinite F500 microplate reader (Tecan, Singapore).

rat nNOS = biological target: T2, rat nNOS (Rattus norvegicus, UniProt P29476); test: NOS inhibition, oxyhemoglobin (hemoglobin capture) test, recombinant nNOS; format: biochemical; settings: recombinant enzyme, 10 µM arginine, triplicate, NI = <50% inhibition at 100 μM
T2 construct: Full-length recombinant rat nNOS, mouse iNOS, bovine eNOS; made in house; host or cells: Escherichia coli
T2 sequence (P29476 whole entry): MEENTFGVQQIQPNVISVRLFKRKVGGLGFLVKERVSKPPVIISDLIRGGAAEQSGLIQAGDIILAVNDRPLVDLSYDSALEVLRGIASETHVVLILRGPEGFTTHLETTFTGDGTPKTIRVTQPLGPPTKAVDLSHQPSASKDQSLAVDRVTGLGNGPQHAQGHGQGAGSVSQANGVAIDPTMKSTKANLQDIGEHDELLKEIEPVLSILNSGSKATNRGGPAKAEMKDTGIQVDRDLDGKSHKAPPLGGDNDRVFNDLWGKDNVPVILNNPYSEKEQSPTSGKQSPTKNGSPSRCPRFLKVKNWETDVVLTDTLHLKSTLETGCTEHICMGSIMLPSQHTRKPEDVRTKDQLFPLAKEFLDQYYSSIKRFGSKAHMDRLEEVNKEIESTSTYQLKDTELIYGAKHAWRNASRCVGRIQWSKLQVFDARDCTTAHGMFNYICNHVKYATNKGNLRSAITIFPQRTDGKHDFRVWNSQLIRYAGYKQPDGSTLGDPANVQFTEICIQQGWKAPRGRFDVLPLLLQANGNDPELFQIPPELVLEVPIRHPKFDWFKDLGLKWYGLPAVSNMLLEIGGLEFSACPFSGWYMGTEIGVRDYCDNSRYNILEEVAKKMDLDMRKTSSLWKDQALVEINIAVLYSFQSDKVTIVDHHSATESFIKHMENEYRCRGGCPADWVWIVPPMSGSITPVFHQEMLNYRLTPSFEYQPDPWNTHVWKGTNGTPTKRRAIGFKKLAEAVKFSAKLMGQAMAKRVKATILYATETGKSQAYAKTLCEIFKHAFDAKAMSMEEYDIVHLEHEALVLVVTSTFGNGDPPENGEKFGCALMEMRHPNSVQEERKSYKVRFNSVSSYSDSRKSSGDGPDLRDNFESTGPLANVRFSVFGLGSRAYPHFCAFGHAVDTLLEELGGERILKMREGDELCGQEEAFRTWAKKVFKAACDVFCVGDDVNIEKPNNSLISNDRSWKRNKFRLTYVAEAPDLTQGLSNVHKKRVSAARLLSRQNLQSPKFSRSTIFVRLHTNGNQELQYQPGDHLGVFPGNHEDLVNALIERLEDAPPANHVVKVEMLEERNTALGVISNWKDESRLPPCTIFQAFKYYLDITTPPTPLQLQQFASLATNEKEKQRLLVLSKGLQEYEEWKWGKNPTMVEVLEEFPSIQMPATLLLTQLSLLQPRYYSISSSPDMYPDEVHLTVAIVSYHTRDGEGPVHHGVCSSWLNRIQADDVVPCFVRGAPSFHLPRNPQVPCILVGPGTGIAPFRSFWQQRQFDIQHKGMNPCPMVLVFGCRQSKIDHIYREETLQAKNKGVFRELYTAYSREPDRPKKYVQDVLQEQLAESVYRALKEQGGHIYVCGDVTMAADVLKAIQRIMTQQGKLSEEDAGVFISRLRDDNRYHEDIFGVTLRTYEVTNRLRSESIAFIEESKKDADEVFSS
Protocol: (§2) The inhibitory effects of all compounds against the three recombinant NOSs (rat nNOS, mouse iNOS, and bovine eNOS) were evaluated in 96-well plates using the oxyhemoglobin test. A first screening at 100 and 10 μM was performed, and the IC50 values were measured for compounds showing more than 50% inhibition at 100 μM (Table 1 and Table 2).
(§3) Full-length recombinant rat nNOS, mouse iNOS, bovine eNOS, and the heme domains of rat brain nNOS and mouse iNOS were expressed in Escherichia coli and purified as described previously.
(§4) NOS catalytic activity was measured using the hemoglobin capture assay. The test was performed at 30 °C in 96-well microplates using a final volume of 200 µL. The assay mixture contained 100 µM NADPH, 10 µM BH4, 6 µM HbO2, 100 µM DTT, 5 µM FAD, 5 µM FMN, 10 µM (nNOS and eNOS), or 20 µM (iNOS) arginine, all in a 100 mM Hepes buffer, pH 7.5, and, for constitutive n- and e-NOS, 10 µg/mL calmodulin, and 1 mM CaCl2. The studied compounds were introduced as 2 μL of ×100 concentrated solutions in DMSO, and the control experiments were performed with DMSO or the buffer only. The kinetics of NO production were measured at 401 nm using an Infinite F500 microplate reader (Tecan, Singapore).

mouse iNOS [2] = biological target: T3, mouse iNOS (Mus musculus, UniProt P29477); test: NOS inhibition, oxyhemoglobin (hemoglobin capture) test, recombinant iNOS; format: biochemical; settings: recombinant enzyme, 20 µM arginine, triplicate, NI = <50% inhibition at 100 μM
T3 construct: Full-length recombinant rat nNOS, mouse iNOS, bovine eNOS; made in house; host or cells: Escherichia coli
T3 sequence (P29477 1-1144): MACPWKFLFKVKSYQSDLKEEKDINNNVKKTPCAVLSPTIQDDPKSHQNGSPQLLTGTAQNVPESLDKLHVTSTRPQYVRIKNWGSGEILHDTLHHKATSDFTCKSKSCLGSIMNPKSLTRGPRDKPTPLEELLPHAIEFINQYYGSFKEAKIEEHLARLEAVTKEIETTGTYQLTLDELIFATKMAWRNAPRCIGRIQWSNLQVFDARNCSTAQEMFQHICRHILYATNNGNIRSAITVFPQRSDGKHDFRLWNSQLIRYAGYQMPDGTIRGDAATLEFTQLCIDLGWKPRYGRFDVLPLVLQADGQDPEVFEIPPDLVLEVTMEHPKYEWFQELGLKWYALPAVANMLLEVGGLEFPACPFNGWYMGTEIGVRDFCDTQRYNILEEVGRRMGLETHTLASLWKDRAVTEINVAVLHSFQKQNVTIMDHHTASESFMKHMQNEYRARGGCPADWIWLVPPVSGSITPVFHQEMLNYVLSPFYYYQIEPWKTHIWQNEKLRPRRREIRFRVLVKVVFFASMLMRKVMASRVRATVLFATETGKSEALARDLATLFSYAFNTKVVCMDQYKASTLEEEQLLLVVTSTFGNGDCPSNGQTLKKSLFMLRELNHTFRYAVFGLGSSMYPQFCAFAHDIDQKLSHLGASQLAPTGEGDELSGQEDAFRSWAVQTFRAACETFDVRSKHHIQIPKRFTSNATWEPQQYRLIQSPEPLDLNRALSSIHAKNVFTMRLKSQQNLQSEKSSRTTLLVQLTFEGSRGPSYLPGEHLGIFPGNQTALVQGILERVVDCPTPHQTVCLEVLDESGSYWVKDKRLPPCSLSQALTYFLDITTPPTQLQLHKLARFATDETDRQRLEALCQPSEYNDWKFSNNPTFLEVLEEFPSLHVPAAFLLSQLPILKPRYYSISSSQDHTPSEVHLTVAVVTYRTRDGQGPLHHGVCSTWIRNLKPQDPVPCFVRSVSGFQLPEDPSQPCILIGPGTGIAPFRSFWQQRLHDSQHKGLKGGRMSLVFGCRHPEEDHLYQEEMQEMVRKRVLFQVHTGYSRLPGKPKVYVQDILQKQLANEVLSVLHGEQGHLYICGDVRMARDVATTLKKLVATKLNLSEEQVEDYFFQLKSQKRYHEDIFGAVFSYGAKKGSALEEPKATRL
Protocol: as §2, §3, §4

iNOS in RAW 264.7 cells = biological target: T4, iNOS in RAW 264.7 cells (Mus musculus, UniProt P29477); test: Inhibition of NO production (nitrite, Griess) in LPS-stimulated cells; format: cell-based, murine; settings: RAW264.7; RAW 264.7, LPS 1 µg/mL, 100 μM compound; read-out: Inhibition of intracellular NO production
T4 construct: In RAW 264.7 cells, iNOS was induced by LPS (1 µg/mL, Sigma-Aldrich) for 24 h; endogenous in cells; host or cells: RAW 264.7 murine macrophages, LPS-induced
Protocol: We evaluated the ability of selected compounds (dipeptides 7, 8, and 21 and 1,2,4-oxadiazoles 30 and 40) to inhibit iNOS in RAW 264.7 cells (Figure 2), where iNOS was induced by LPS (1 µg/mL). iNOS activity was measured following LPS induction by quantifying nitrite accumulation in the supernatant. […] A similar result was previously reported.
In RAW 264.7 cells, iNOS was induced by LPS (1 µg/mL, Sigma-Aldrich) for 24 h. All studied compounds were incubated with cells during the last 24 h.
as §1

mouse iNOS [3] = test: NOS inhibition, oxyhemoglobin (hemoglobin capture) test, recombinant iNOS; format: biochemical; settings: from IC50 values
Protocol: as §2, §3, §4

eNOS = biological target: eNOS; parameters: method as in PMID 14718923; settings: read-out: Experimental Ki eNOS; cited from earlier work
nNOS = tested on: nNOS; parameters: method as in PMID 14718923; settings: cited from earlier work
RAW 264.7 cells [4] = tested on: RAW 264.7 cells; parameters: method as in PMID 32027778; settings: RAW 264.7, LPS; cited from earlier work
[5] = biological target: T5, oxygenase domain of iNOS (iNOSoxy) (Mus musculus, UniProt P29477); test: UV-visible difference spectroscopy titration of iNOSoxy; format: binding; settings: UV/Vis difference spectroscopy, ± SD, three experiments; read-out: Apparent equilibrium constant Ks iNOSoxy
T5 construct: the oxygenase domain of nNOS (nNOSoxy) and iNOS (iNOSoxy); made in house; host or cells: Escherichia coli
T5 sequence (P29477 1-498 limits assumed): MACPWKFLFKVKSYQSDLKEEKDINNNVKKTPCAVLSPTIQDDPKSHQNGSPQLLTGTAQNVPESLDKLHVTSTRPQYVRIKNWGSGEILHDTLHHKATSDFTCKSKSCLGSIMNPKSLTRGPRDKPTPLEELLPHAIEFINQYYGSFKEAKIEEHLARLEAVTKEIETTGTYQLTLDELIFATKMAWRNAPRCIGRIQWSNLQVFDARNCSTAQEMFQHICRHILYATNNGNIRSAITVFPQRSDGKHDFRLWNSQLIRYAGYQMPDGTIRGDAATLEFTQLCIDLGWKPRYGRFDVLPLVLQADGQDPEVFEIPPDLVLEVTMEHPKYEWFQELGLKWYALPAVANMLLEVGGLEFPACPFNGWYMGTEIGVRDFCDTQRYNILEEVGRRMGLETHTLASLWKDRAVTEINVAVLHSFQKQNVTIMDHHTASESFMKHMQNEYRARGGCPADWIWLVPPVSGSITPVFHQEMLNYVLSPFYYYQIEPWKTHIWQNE
From the text: (§5) We performed UV–visible difference spectroscopy to analyze the interaction mode of some inhibitors with the heme-active site of NOS [54]. We have studied the effects of dipeptide-like compounds 7, 17, 19, 23, and 27 and 1,2,4-oxadiazole 35 on the UV–visible spectra of the oxygenase domain of nNOS (nNOSoxy) and iNOS (iNOSoxy). As expected, when added stepwise to n- and iNOSoxy, all selected compounds elicited different spectra with a trough at ~425 nm and a peak at ~395 nm, similar to the substrate L-arginine. This profile is characteristic of type I interactions, meaning that they are bound in close proximity to the heme prosthetic group and shifted the spin state equilibrium to the pentacoordinated heme–Fe^III state. Double reverse plotting of the differences in absorbance between the peak at ~395 nm and valley at ~425 nm (ΔA395–425 nm) as a function of the concentration of the added compounds allowed calculating apparent binding constants (Ks) (Table 3). The reference inhibitor SEITU [55] tightly bound both NOS isoforms with high affinity but no selectivity. With the exception of the dipeptide-like 27 and the heterocyclic analog 35, which similarly interacted with both proteins, other compounds preferentially bound nNOSoxy over iNOSoxy with apparent affinities close to SEITU for this isoform.
as §3
(§6) This study was performed as previously described.

[6] = biological target: T6, oxygenase domain of nNOS (nNOSoxy) (Rattus norvegicus, UniProt P29476); test: UV-visible difference spectroscopy titration of nNOSoxy; format: binding; settings: UV/Vis difference spectroscopy, ± SD, three experiments; read-out: Apparent equilibrium constant Ks nNOSoxy
T6 construct: the oxygenase domain of nNOS (nNOSoxy) and iNOS (iNOSoxy); made in house; host or cells: Escherichia coli
T6 sequence (P29476 1-720 limits assumed): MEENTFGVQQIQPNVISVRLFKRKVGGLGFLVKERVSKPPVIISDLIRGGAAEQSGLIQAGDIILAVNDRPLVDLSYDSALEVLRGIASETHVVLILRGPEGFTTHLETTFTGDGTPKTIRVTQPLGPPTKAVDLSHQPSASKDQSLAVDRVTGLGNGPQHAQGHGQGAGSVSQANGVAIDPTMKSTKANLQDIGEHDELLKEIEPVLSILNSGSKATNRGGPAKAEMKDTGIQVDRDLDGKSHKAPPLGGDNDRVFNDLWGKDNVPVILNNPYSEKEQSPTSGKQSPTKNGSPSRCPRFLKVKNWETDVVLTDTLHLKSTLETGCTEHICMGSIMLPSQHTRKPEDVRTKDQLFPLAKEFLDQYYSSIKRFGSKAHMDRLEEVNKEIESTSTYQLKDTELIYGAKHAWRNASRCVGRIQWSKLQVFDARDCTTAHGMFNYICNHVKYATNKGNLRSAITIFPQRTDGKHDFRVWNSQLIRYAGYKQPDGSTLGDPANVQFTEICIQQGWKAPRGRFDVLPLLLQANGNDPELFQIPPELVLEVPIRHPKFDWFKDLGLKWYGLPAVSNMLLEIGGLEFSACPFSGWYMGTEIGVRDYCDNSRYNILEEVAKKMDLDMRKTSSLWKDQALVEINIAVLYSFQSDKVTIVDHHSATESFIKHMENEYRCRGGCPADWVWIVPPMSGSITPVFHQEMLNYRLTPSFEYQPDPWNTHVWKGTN
From the text: as §5, §3, §6

With CCSC(=N)NCCC[C@H](N)C(=O)N[C@H]1CCCN(Cc2cccc(Br)c2)C1 [Compound 21] the “Reversal of LPS-induced reduction of cell viability” value (RAW 264.7 cells [1]; RAW 264.7, LPS 1 µg/mL) was “none partially reversed the LPS effect”, the “Effect on cell viability (MTT)” value (RAW 264.7 cells [1]; RAW 264.7, absence of LPS, up to 100 μM) was “did not modify cell viability” and the inhibition at 100 µM (bovine eNOS; dipeptide-like series) was < 50%. For the same compound, the IC50 (rat nNOS; dipeptide-like series) was 1 µM, the IC50 (mouse iNOS [2]; dipeptide-like series) was 45.5 µM and the inhibition at 100 µM (iNOS in RAW 264.7 cells) was 80%.
For CCSC(=N)NCCC[C@H](N)c1nc(CCN(Cc2ccccc2[N+](=O)[O-])Cc2ccccc2[N+](=O)[O-])no1 [Compound 40], the inhibition at 100 µM (bovine eNOS; 1,2,4-oxadiazole series) was < 50%, the IC50 (rat nNOS; 1,2,4-oxadiazole series) was 61 µM and the “Selectivity for iNOS toward eNOS” value (mouse iNOS [3]) was > 50 fold. For the same compound, the “Selectivity for iNOS toward nNOS” value (mouse iNOS [3]) was 30 fold and the IC50 (mouse iNOS [2]; 1,2,4-oxadiazole series) was 2 µM.
For N=C(NCCC[C@H](N)C(=O)N1C[C@H](N)C[C@H]1C(N)=O)N[N+](=O)[O-] [DP9, L-Nω-nitroarginine-(4R)-amino-L-prolinamide], the Ki (eNOS) is given as 110 µM, the “Selectivity in favor of nNOS over eNOS” value (nNOS) is given as 1000 fold and the Ki (nNOS; read-out: Experimental Ki nNOS) is given as 0.1 µM.
In the case of CC(=N)NCCCC[C@H](N)C(=O)O [L-NIL], the “Reversal of LPS-induced reduction of cell viability” value (RAW 264.7 cells [4]) is listed as “partially reversed the LPS effect”.
For CCSC(=N)N [SEITU, reference compound], the “Reversal of LPS-induced reduction of cell viability” value (RAW 264.7 cells [4]) is listed as “partially reversed the LPS effect”, the Kd [5] is listed as 1.7 ± 0.1 µM and the Kd [6] is listed as 6.4 ± 1.5 µM.
